No end group written: not given here.
Key:
[1] = test system: HCMV strain AD169; experiment: HCMV plaque formation assay in MRC-5 cells; assay type: cell-based; settings: for inhibition of HCMV plaque formation as compared to the virus control experiment: 10 micrograms per ml, 7-10 days
[2] = test system: hepatitis B virus (HBV) ayw strain; experiment: HBV experimental assay system (HepG2-2.2.15, TaqMan PCR of secreted HBV DNA); assay type: cell-based; settings: 10 micrograms per ml; six days; HBV DNA in supernatant
[3] = test system: Human A549 cells; experiment: Apoptosis induction assay (Annexin-5); assay type: cell-based; settings: 10 micrograms per ml; 24 hours
[4] = test system: murine spleen cells; experiment: Th1/Th2 cytokine profiling assay (Ovalbumin-restimulated spleen cells); assay type: cell-based, Balb/c mice; settings: 10 micrograms per ml; Ovalbumin restimulation, 72 hours
Excerpt: The Balb/c mice (originated in 1923, it is a popular strain and is used in many different research disciplines. Also classified as an inbred from the production of 20 or more successive brother-sister matings, the Balb/c mouse is albino and small in size) were immunized on Days 1, 15, and 29 with Ovalbumin (Ovalbumin is the main protein found in egg white, commonly used to stimulate an immunological reaction in test animals) in PBS (5 micrograms/injection). On day 50, spleens of the mice were harvested (3 weeks after last boost with Ovalbumin). […] Thereafter, additional Ovalbumin was added to the cells at 10 micrograms/ml for in vitro restimulation of the cells. 72 hours later, cell supernatants were harvested and assayed using the Becton Dickinson Mouse Th1/Th2 Cytokine CBA Kit.

[5] = test system: Primary Human endothelial cells (HUVEC); experiment: Endothelial cell migration assay; assay type: cell-based; settings: 10 micrograms per ml; 22 hours
[6] = test system: HUVEC; experiment: Endothelial tube formation assay; assay type: cell-based, human; settings: 10 micrograms per ml; 20 hours
Excerpt: Positive control was vehicle only.

[7] = test system: Human A549 cells; experiment: Apoptosis prevention assay (C2 ceramide, Annexin-5); assay type: cell-based; settings: 10 micrograms per ml; 30 min pretreatment, then C2 ceramide
Procedure: Human A549 cells (carcinomic human alveolar basal epithelial cells) were utilized in the experiments employing the Annexin-5 apoptosis assay. […] A549 cells were pretreated for 30 min with test peptides—10 micrograms per ml—followed by the exposure to C2 ceramide.

[8] = test system: HIV-1IIIB; experiment: HIV-1 antiviral assay in CEM-SS cells; settings: HIV-1 assay

Molecule	inhibition of HBV replication as compared to the virus control infection [2]	inhibition of HCMV plaque formation as compared to the virus control experiment [1]	induction of apoptosis on human lung cells [3]	production of IL-2, induced by [4]	production of IL-4, induced by [4]	production of IL-5, decreased by [4]	production of TNF-alpha, induced by [4]	tube formation of human endothelial cells, inhibited by [6]	antiviral activity of positive control compounds [8]	other results
Nc1nc(O)c2ncn(COC(CO)CO)c2n1 [Ganciclovir, reference compound]	–	–	–	–	–	–	–	–	–	antiviral activity of positive control compound ([1]; positive control, HCMV assay): expected levels of antiviral activity
Gly-Pro-Glu-OH [Peptide 2]	30.7%	2.9%	1.4%	24.0%	52.7%	37.2%	did not significantly change	20%	–	production of IFN-gamma, decreased by [4]: 42.5%; migration of human endothelial cells, induced by [5]: 11%
Ala-Gly-Cys-Lys-Asn-Phe-Phe-Trp-Lys-Thr-Phe-Thr-Ser-Cys-OH (AGCKNFFWKTFTSC-OH; ends and bridges not checked) [Peptide 1]	14.1%	1.8%	9.4%	102.7%	did not significantly change	did not significantly change	27.5%	9%	–	induction of apoptosis on human lung cells (ceramide-induced apoptosis) [7]: 27%; production of IFN-gamma, induced by [4]: 65.1%; migration of human endothelial cells, inhibited by [5]: 3%
CC(C)(C)NC(=O)[C@@H]1CN(Cc2cccnc2)CCN1C[C@@H](O)C[C@@H](Cc1ccccc1)C(=O)N[C@H]1c2ccccc2C[C@H]1O [indinavir]	–	–	–	–	–	–	–	–	expected levels of antiviral activity	–
Cc1cn([C@H]2C[C@H](N=[N+]=[N-])[C@@H](CO)O2)c(=O)[nH]c1=O [AZT]	–	–	–	–	–	–	–	–	expected levels of antiviral activity	–

Source: patent US8211856B2, “Use of somatostatin-14 as a therapeutic agent” (mondoBIOTECH Laboratories AG, priority 2007, dated 2012)
